# Source: PMC4932617 (Meta Gene, 2016)
# Legend:
# [1] = higher in poor than in extensive metabolizers; ref Klotz, 2006; cited from earlier work
# intra-gastric pH = assay: Intra-gastric pH monitoring; type: in vivo, human; conditions: for pH on Day 6: n=1; for Difference in intra-gastric pH between baseline and day 6: rapid and ultra-rapid metabolizers (CYP2C19*17 carriers)
Structure (SMILES),AUC in poor metabolizers relative to extensive metabolizers [1] [fold],Difference in intra-gastric pH between baseline and day 6 (intra-gastric pH; 40 mg/day for 5 days),further results
Cc1c(OCC(F)(F)F)ccnc1C[S+]([O-])c1nc2ccccc2[nH]1 (stereo not drawn) [lansoprazole],4.5,–,–
COCCCOc1ccnc(C[S+]([O-])c2nc3ccccc3[nH]2)c1C (stereo not drawn) [rabeprazole],4,–,–
COc1ccc2[nH]c([S+]([O-])Cc3ncc(C)c(OC)c3C)nc2c1 (stereo not drawn) [omeprazole],7.5,–,–
COc1ccnc(C[S+]([O-])c2nc3ccc(OC(F)F)cc3[nH]2)c1OC (stereo not drawn) [Pantoprazole],–,noteworthy differences could not be observed,"pH on Day 6 (intra-gastric pH; normal metabolizer, pantoprazole 40 mg/day for 5 days, baseline pH 1.50): 4.10; Gastric acid suppression compared to esomeprazole (intra-gastric pH; poor and intermediate metabolizers, 40 mg/day for 5 days): improved gastric acid suppression"
COc1ccc2nc([S@@+]([O-])Cc3ncc(C)c(OC)c3C)[nH]c2c1 [Esomeprazole],–,noteworthy differences could not be observed,"pH on Day 6 (intra-gastric pH; normal metabolizer, esomeprazole 40 mg/day for 5 days, baseline pH 0.40): 3.40; pH on Day 6 (intra-gastric pH; rapid metabolizer, esomeprazole 40 mg/day for 5 days, baseline pH 1.25): 1.20"
